Experimental data from patent publication US6733971B2, “Method for identifying an agent that affects a hedgehog signaling pathway” (priority 1998, dated 2004).

Assays:
GliRE = assay: GliRE-CAT reporter in P19 cells cotransfected with Shh expression plasmid; format: cell-based, mouse; conditions: 5 nM for 14 hours
Experimental: P19 cells were cotransfected with pBKCMV-Shh expression plasmid and a GliRECAT reporter plasmid (1 μg)as described earlier. Krishnan, V., et al., Mol. Endo., 11: 1458-1466, 1997. Cells cotransfected with pBKCMY-Shh or pBKCMV plasmid (200 ng) were treated with or without 5 nM OA for 14 hours and reporter gene activity was assayed as described earlier. Gorman, C. M., et al., Mol. and Cell. Biology, 2:1044-1051, 1982. Results are expressed as mean±sd from three separate experiments.

ShhRE = assay: EMSA of Shh-induced protein binding to radiolabeled ShhRE, P19 nuclear extracts; format: cell-based, mouse; conditions: 5 nM, 1.0 nM Shh-N, 24 hours
Experimental: Methods described in Example 6 were used in addition to the following protocols. P19 cells were treated with or without Shh-N for 24 hours and nuclear extracts were obtained and used in an electrophoretic mobility shift assay (EMSA) with radiolabeled ShhRE. The following oligos were used as competitors or probes in these assays; WT ShhRE—GTTCTACATAATGCGCCG—SEQ ID NO:1; mShhRE—GTTCTACgTgATGCGCCG—SEQ ID NO:3; GliRE—[…]—. SEQ ID NO:4, Different amounts of unlabeled Gli response element (GliRE) (FIG. 5C, lane 3, 100X; lane 4, 50X; lane 5, 25X; and lane 6, 10X) or ShhRE (lane 7; 100X, lane 8; 50X and lane 9; 10X) was used as a competitor at the indicated molar excess.
In EMSA, radiolabeled probe was incubated with the nuclear extracts (10 μg) along with 4 μg poly dG-dC in a binding reaction containing 10 mM Tris pH 7.5, 50 mM NaCl, 1 mM EDTA, 1 mM DTT, 0.1 mg/ml BSA, and 5% glycerol. Later the mixture was loaded onto a 5% polyacrylamide gel and the retarded complexes were separated-in 1× TBE buffer and analyzed using autoradiography.
P-19 cells were treated with phosphatase inhibitors to study the endogenous levels of COUP-TFII mRNA. […] Total RVA was isolated from these cells and 20 μg of RNA was used in a RNase protection assay as described above in Example 6. A region of the murine Cyclophilin A cDNA was used to generate riboprobe and was used as an internal control. P19 cells were co-treated with (FIG. 7C, lane 2, 4, 6, and 7) or without (FIG. 7C, lane 1, 3, and 5) 1.0 nM Shh-N and 5 nM OA (lane 3 and 4), 0.5 nM CyA (FIG. 7C, lane 5 & 6) or 5 nm NoA (FIG. 7C, lane 9). Cells were harvested after 24 hours of treatment and the nuclear extract was obtained for the binding reactions. Extracts were subjected to an EMSA as described earlier.

[1] = tested on: Islet-1 and neurofilament (NFL); assay: Mouse neural tube explants, whole-mount immunostaining; format: cell-based; conditions: 5 nM for 24 hours
Experimental: Mouse embryos at embryonic day 9-9.5 were dissected in such a way as to remove surface ectoderm and somitic mesoderm and neural tubes were isolated from the level of rhombomere 8 in the rostral region to the first segmenting somite in the caudal region. Neural tubes were cultured for 24 hours, dorsal-side down on Millicell-CM membranes and overlayed with Matrigel™ containing 10 ng/ml NT-3, with L15 air in presence or absence of 5nM OA. The explants were subjected to whole-mount immunostaining using a monoclonal antibody raised against mouse Islet-1 (39.4D5) or neurofilament (NFL) was used to analyze any changes in Islet-1 and NFL expression.

[2] = tested on: PP1 and PP2A enzyme activity; assay: Protein phosphatase assay on nuclear extracts of control and Shh treated P19 cells; format: biochemical, mouse; conditions: 2 nM, 15 minutes at 30° C., nuclear extracts of 1 nM Shh treated P19 cells
Experimental: P19 cells were treated with or without 1 nM Shh for 36 hours and nuclear extracts from these cells were obtained as described earlier. A protein phosphatase assay system™ (Life Technologies, Bethesda) was used to quantitate the phosphatase activity present in the control and induced extracts. P19 cells were treated with or without 1 nM Shh for 36 hours and nuclear extracts from these cells were obtained and incubated with 2 nM OA or 4 nM Inh-2 protein for 15 minutes at 30° C. Results are expressed as mean±sd from three separate experiments.

C=C1[C@@H](O)[C@@H]2O[C@]3(CC[C@H](/C=C/[C@@H](C)[C@@H]4CC(C)=C[C@@]5(O[C@H](C[C@@](C)(O)C(=O)O)CC[C@H]5O)O4)O3)CC[C@H]2O[C@@H]1[C@@H](O)C[C@H](C)[C@H]1O[C@@]2(CCCCO2)CC[C@H]1C [OA, okadaic acid]
Shh-enhanced GliRE-CAT reporter activity (GliRE): sensitive
Shh-induced binding to radiolabeled ShhRE (ShhRE): abolished
neurofilament staining within the neural tube [1]: no effect
levels of immunodetectable Is11 protein ([1]; 9.5 dpc mouse neural tube explants): significantly decreased
Shh-induced phosphatase activity [2]: completely abolished
